pIC50: −log10 of the molar value. Structures can show the parent of a compound that is named as a salt. Where two headings read alike, the source gives them in different places.
Experiments:
5-HT2 receptors = molecular target: T1, 5-HT2 receptors (Rattus norvegicus, UniProt P14842); experiment: Inhibition of ^3 H-Ketanserin Binding to 5-HT2 Receptors in Rat Cortex in vitro
T1 construct: 5-HT2 Receptors in Rat Cortex in vitro; from tissue; host or cells: rat cortex membranes
Procedure: Inhibition of ^3 H-Ketanserin Binding to 5-HT2 Receptors in Rat Cortex in vitro
By this method the inhibition by drugs of the binding of ^3 H-Ketanserin (0,5 nM) to 5-HT2 receptors in membranes from rat is determined in vitro. The method is described in Hyttel, Pharmacol. & Toxicol.

dopamine D2 receptors = dopamine D2 receptors (Rattus norvegicus, UniProt P61169); experiment: biochemical; format: binding
Procedure: Inhibition of ^3 H-Spiroperidol Binding to Dopamine D2 Receptors in Rat Corpus Striatum in vitro
By this method the inhibition by drugs of the binding of ^3 H-spiroperidol (0.5 nM) to dopamine D2 receptors in membranes from rat corpus striatum is determined in vitro.

[1] = ^3 H-Ketanserin 0,5 nM, rat cortex membranes, read-out: 5-HT2 binding ^3 H ketanserin, IC50
[2] = ^3 H-spiroperidol 0.5 nM, rat corpus striatum membranes, read-out: Dopamin D2 binding ^3 H spiroperidol, IC50
[3] = read-out: Dopamin D2 binding ^3 H spiroperidol, IC50

Chain of dopamine D2 receptors (P61169 whole entry): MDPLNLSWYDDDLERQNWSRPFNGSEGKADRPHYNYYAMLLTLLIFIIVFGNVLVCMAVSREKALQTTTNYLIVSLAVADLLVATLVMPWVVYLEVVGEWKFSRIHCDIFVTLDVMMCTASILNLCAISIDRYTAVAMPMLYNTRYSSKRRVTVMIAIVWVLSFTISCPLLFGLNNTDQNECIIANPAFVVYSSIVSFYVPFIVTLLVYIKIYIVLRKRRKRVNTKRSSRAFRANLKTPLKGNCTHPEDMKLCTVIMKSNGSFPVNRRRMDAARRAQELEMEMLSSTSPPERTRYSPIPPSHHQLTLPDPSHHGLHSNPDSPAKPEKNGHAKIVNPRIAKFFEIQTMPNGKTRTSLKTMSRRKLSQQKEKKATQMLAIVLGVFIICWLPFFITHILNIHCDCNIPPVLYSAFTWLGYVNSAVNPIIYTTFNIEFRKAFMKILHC
T1 sequence (P14842 whole entry): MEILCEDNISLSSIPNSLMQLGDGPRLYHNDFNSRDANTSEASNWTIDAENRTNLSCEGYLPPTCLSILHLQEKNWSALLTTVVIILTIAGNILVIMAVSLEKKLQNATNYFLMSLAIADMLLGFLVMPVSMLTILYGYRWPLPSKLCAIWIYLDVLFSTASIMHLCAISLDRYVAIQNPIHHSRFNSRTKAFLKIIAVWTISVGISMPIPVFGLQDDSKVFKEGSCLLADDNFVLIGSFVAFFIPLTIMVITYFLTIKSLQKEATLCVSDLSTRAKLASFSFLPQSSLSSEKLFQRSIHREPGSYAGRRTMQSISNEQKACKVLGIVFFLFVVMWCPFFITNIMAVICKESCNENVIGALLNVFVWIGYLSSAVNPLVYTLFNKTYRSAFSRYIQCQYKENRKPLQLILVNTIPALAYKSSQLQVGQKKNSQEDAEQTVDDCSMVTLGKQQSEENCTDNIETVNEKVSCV

| Molecule | pIC50 (5-HT2 receptors; [1]) | pIC50 (dopamine D2 receptors; [2]) | pIC50 (dopamine D2 receptors; [3]) | also measured |
| --- | --- | --- | --- | --- |
| 5-Chloro-1-(4-fluorophenyl)-3-[3-(4-piperidinyl)propyl]-1H-indole hydrochloride [Compound 3d] | 6.96 | 7.68 | – | – |
| CN1CCCC1COc1cn(-c2ccc(F)cc2)c2ccc(Cl)cc12 (stereo in doubt) [Compound 7b, (S)-1-Methyl-2-pyrrolidinylmethoxy-5-chloro-1-(4-fluorophenyl)-1H-indole oxalate] | – | 7.74 | – | pIC50 (5-HT2 receptors; read-out: 5-HT2 binding ^3 H ketanserin, IC50, ^3 H-Ketanserin 0,5 nM, rat cortex membranes): 8.09 |
| CN(C)CCCc1cn(-c2ccc(F)cc2)c2ccc(Cl)cc12 [Compound 3a, N,N-Dimethyl-3-[5-chloro-1-(4-fluorophenyl)-3-1H-indolyl]propylamine fumarate] | 7.72 | 7.38 | – | – |
| CN(CCCc1cn(-c2ccc(F)cc2)c2ccc(Cl)cc12)CCN1CCNC1=O [Compound 3b, 1-[2-[[3-[5-chloro-1-(4-fluorophenyl)-3-1H-indolyl]propyl]methylamino]ethyl]-2-imidazolidinone fumarate] | 8.11 | 6.72 | – | – |
| Fc1ccc(-n2cc(CCCN3CCOCC3)c3cc(Cl)ccc32)cc1 [Compound 3c, 5-Chloro-1-(4-fluorophenyl)-3-[3-(4-morpholinyl)propyl]-1H-indole maleate] | 6.51 | 7.59 | – | – |
| CN(C)CCOc1cn(-c2ccc(F)cc2)c2ccc(Cl)cc12 [Compound 4a, N,N-Dimethyl-2-[5-chloro-1-(4-fluorophenyl)-3-1H-indolyloxy]ethylamine sesqui fumarate] | 8.38 | 8.54 | – | – |
| CN(CCOc1cn(-c2ccc(F)cc2)c2ccc(Cl)cc12)CCN1CCNC1=O [Compound 4b, 1-[2-[[2-[5-chloro-1-(4-fluorophenyl)-3-1H-indolyloxy]ethyl]methylamino]ethyl]-2-imidazolidinone Maleate] | 9.06 | 8.24 | – | – |
| C#CCN(CCOc1cn(-c2ccc(F)cc2)c2ccc(Cl)cc12)CCN1CCNC1=O [Compound 4d, 1-[2-[[2-[5-Chloro-1-(4-fluorophenyl)-3-1H-indolyloxy]ethyl](3-propynyl)amino]ethyl]-2-imidazolidinone oxalate] | 6.66 | 6.72 | – | – |
| Fc1ccc(-n2cc(OCCN3CCCCC3)c3cc(Cl)ccc32)cc1 [Compound 4e, 5-Chloro-1-(4-fluorophenyl)-3-[2-(1-piperidinyl)ethoxy]-1H-indole] | 8.23 | 8.64 | – | – |
| Fc1ccc(-n2cc(OCCN3CCOCC3)c3cc(Cl)ccc32)cc1 [Compound 4f, 5-Chloro-1-(4-fluorophenyl)-3-[2-(4-morpholinyl)ethoxy]-1H-indole maleate] | 7.32 | 7.57 | – | – |
| CN(CCOc1cn(-c2ccc(F)cc2)c2cc(Cl)ccc12)CCN1CCNC1=O [Compound 4h, 1-[2-[[2-[6-chloro-1-(4-fluorophenyl)-3-1H-indolyloxy]ethyl]methylamino]ethyl]-2-imidazolidinone] | 8.70 | 6.70 | – | – |
| CC(C)N1CCN(CCN(C)CCOc2cn(-c3ccc(F)cc3)c3cc(Cl)ccc23)C1=O [Compound 4i, 1-[2-[[2-[6-Chloro-1-(4-fluorophenyl)-3-1H-indolyloxy]ethyl]methylamino]ethyl]-3-(2-propyl)-2-imidazolidinone oxalate] | 8.20 | – | 6.92 | – |
| CN(C)CCOc1cn(-c2ccc(F)cc2)c2cc(Cl)ccc12 [Compound 4j, N,N-Dimethyl-2-[6-chloro-1-(4-fluorophenyl)-3-1H-indolyloxy]ethylamine] | 7.77 | 7.20 | – | – |
| O=C1NCCN1CCC1CCN(CCOc2cn(-c3ccc(F)cc3)c3ccc(Cl)cc23)CC1 [Compound 4k, 1-[2-[1-[2-[5-Chloro-1-(4-fluorophenyl)-3-1H-indolyloxy]ethyl]-4-piperidinyl]ethyl]-2-imidazolidinone] | 7.68 | 8.59 | – | – |
| CNC(=O)C1CCN(CCOc2cn(-c3ccc(F)cc3)c3ccc(Cl)cc23)CC1 [Compound 4n, N-methyl-1-[2-[5-chloro-1-(4-fluorophenyl)-3-1H-indolyloxy]ethyl]4-piperidinecarboxamide] | 7.55 | 8.33 | – | – |
| Fc1ccc(-n2cc(OCCN3CCCC3)c3ccc(Cl)cc32)cc1 [Compound 4o, 6-Chloro-1-(4-fluorophenyl)-2-(1-pyrrolidinyl)ethoxy-1H-indole] | – | 7.64 | – | pIC50 (5-HT2 receptors): 7.52 |
| Fc1ccc(-n2cc(OCCN3CCCCC3)c3ccc(Cl)cc32)cc1 [Compound 4p, 6-Chloro-1-(4-fluorophenyl)-2-(1-piperidinyl)ethoxy-1H-indole] | – | 7.77 | – | pIC50 (5-HT2 receptors): 7.46 |
| CN(C)CCSc1cn(-c2ccc(F)cc2)c2ccc(Cl)cc12 [Compound 4q, N,N-Dimethyl-2-[5-chloro-1-(4-fluorophenyl)-3-1H-indolylthio]ethylamine hydrochloride] | 7.37 | – | 6.85 | – |

| Molecule | pIC50 (5-HT2 receptors; [1]) | pIC50 (dopamine D2 receptors; [2]) | pIC50 (dopamine D2 receptors; [3]) | also measured |
| --- | --- | --- | --- | --- |
| CN(CCSc1cn(-c2ccc(F)cc2)c2ccc(Cl)cc12)CCN1CCNC1=O [Compound 4r, 1-[2-[[2-[5-Chloro-1-(4-fluorophenyl)-3-1H-indolylthio]ethyl]methylamino]ethyl]-2-imidazolidinone] | 7.07 | – | – | pIC50 (dopamine D2 receptors): 6.11 |
| CN(CCN1CCNC1=O)Cc1cn(-c2ccc(F)cc2)c2ccc(Cl)cc12 [Compound 4s, 1-[2-[[5-chloro-1-(4-fluorophenyl)-3-1H-indolylmethyl]methylamino]ethyl]-2-imidazolidinone] | 7.70 | 7.66 | – | – |
| CN(CCCN1CCNC1=O)CCc1cn(-c2ccc(F)cc2)c2ccc(Cl)cc12 [Compound 4u, 1-[3-[[2-[5-chloro-1-(4-fluorophenyl)-3-1H-indolyl]ethyl]methylamino]propyl]-2-imidazolidinone hydrochloride] | 9.00 | – | 7.72 | – |
| CN(CCc1cn(-c2ccc(F)cc2)c2ccc(Cl)cc12)CCN1CCNC1=O [Compound 4v, 1-[2-[[2-[5-chloro-1-(4-fluorophenyl)-3-1H-indolyl]ethyl]methylamino]ethyl]-2-imidazolidinone maleate] | 8.28 | 7.60 | – | – |
| C[C@@H](COc1cn(-c2ccc(F)cc2)c2ccc(Cl)cc12)N(C)C [Compound 6a, (S)-N, N-Dimethyl-2-[5-chloro-1-(4-fluorophenyl) -3-1H-indolyloxy]-1-methylethylamine Oxalate] | 8.13 | – | 8.26 | – |
| C[C@H](COc1cn(-c2ccc(F)cc2)c2ccc(Cl)cc12)N(C)C [Compound 6b, (R)-N,N-Dimethyl-2-[5-chloro-1-(4-fluorophenyl)-3-1H-indolyloxy]-1-methylethylamine oxalate] | 7.68 | – | 7.43 | – |
| CN(C)C(C)(C)COc1cn(-c2ccc(F)cc2)c2ccc(Cl)cc12 [Compound 6c, N,N-Dimethyl-1,1-dimethyl-2-[5-chloro-1-(4-fluorophenyl)-3-1H-indolyloxy]ethylamine oxalate] | 7.38 | – | 6.48 | – |
| CN1CCC[C@H]1COc1cn(-c2ccc(F)cc2)c2ccc(Cl)cc12 [Compound 7a, (S)-1-Methyl-2-pyrrolidinylmethoxy-5-chloro-1-(4-fluorophenyl)-1H-indole Oxalate] | 7.74 | 7.52 | – | – |
| O=C1NCCN1CCN1CCC[C@@H]1COc1cn(-c2ccc(F)cc2)c2ccc(Cl)cc12 [Compound 8a, (R)-1-[2-[2-[5-Chloro-1-(4-fluorophenyl)-3-1H-indolyloxymethyl]-1-pyrrolidinyl]ethyl]-2-imidazolidinone Oxalate] | 7.31 | – | 8.09 | – |
| C[C@@H](CN(C)CCOc1cn(-c2ccc(F)cc2)c2ccc(Cl)cc12)N1CCNC1=O [Compound 8b, (S)-1-[1-methyl-2-[[2-[5-chloro-1-(4-fluorophenyl)-3-1H-indolyloxy]ethyl]methylamino]ethyl]-2-imidazolidinone oxalate] | 6.66 | – | 7.46 | – |
| CN(C)CCOc1c(CO)n(-c2ccc(F)cc2)c2ccc(Cl)cc12 [Compound 9a, N,N-Dimethyl-2-[5-chloro-1-(4-fluorophenyl)-2-hydroxymethyl-3-1H-indolyloxy]ethylamine Hydrochloride] | – | – | 6.37 | pIC50 (5-HT2 receptors): 7.42 |
| Cc1c(OCCN(C)C)c2cc(Cl)ccc2n1-c1ccc(F)cc1 [Compound 10, N,N-Dimethyl-2-[5-chloro-1-(4-fluorophenyl)-2-methyl-3-1H-indolyloxy]ethylamine Oxalate] | 7.96 | – | 7.08 | – |
| CN(C)Cc1cn(-c2ccc(F)cc2)c2ccc(Cl)cc12 [Compound 13a, N,N-Dimethyl-[5-chloro-1-(4-fluorophenyl)-3-1H-indolyl]methylamine Maleate] | 7.92 | 7.72 | – | – |
| CNCc1cn(-c2ccc(F)cc2)c2ccc(Cl)cc12 [Compound 13b, N-methyl-[5-chloro-1-(4-fluorophenyl)-3-1H-indolylmethyl]amine hydrochloride] | 7.68 | – | 7.48 | – |
| CN(C)CCc1cn(-c2ccc(F)cc2)c2ccc(Cl)cc12 [Compound 14b, N,N-Dimethyl-2-(5-chloro-1-(4-fluorophenyl)-3-1H-indolyl)ethylamine maleate] | 8.05 | – | 7.42 | – |
| Fc1ccc(-n2cc(CCN3CCOCC3)c3cc(Cl)ccc32)cc1 [Compound 14c, 5-chloro-1-(4-fluorophenyl)-3-(2-(4-morpholinyl)ethyl)-1H-indole fumarate] | 7.66 | – | – | pIC50 (dopamine D2 receptors): 7.27 |
| CNCCc1cn(-c2ccc(F)cc2)c2ccc(Cl)cc12 [Compound 15a, N-methyl-2-(5-chloro-1-(4-fluorophenyl)-3-1H-indolyl)ethylamine Maleate] | 7.77 | – | – | pIC50 (dopamine D2 receptors): 7.62 |
